# Measurements reported in patent US7326710B2, “Aralkyl formyl-alkyl piperazine derivatives and their uses as a cerebral nerve protective agent” (Shanghai Institute of Pharmaceutical Industry, priority 2002, dated 2008).
# Where two headings read alike, the source gives them in different places. Marks after values point to notes of the source that are not given here.
# Legend:
# Acute toxicity = conditions: mouse, in vivo, mice, read-out: LD50 (95% confidence limit)
# [1] = test system: rats platelet aggregation induced by ADP; assay: Platelet aggregation induced by ADP; assay type: cell-based; conditions: concentration 1×10^−4M
# [2] = test system: focal cerebral ischemia in rats; assay: Focal brain injury, occlusion of MCA induced by photochemical reaction; assay type: in vivo
# Method: a. Focal brain injury caused by photochemical induction of occlusion of the artery:
# The percentage of infarction was lowered by 52% at 24 hours after operation.
# [3] = test system: primary culture of rat cerebral cortical neuronal cells; assay: Protective effect on neurons damaged with NMDA, LDH activity; assay type: cell-based; conditions: NMDA 1 mmol/L
# Excerpt: Primary culture of rat cerebral cortical neuronal cells were used. […] This is further evidence that IV-23 is a new NMDA receptor antagonist, and has anti-cerebral ischemic injury functions as well.
# NMDA receptor [4] = assay: Maximum contraction of isolated guinea pig longitudinal ileum muscle preparations induced by L-Glu; conditions: compound 10^−5M; contraction induced by L-Glu
# Excerpt: According to the literature (Luzzi, Br J Pharmacol, 95:1271, 1988), maximum contraction of isolated longitudinal ileomuscle preparations of guinea pig induced by L-Glu, were used to examine the activities of the compounds on the NMDA receptor.
# [5] = test system: focal cerebral ischemia in rats; assay: Focal cerebral infarction, electrical coagulation to occlude MCA; assay type: in vivo; design: The neurological deficit score After the operation / The neurological deficit score 24 h: scale not given here
# [6] = test system: focal cerebral ischemia in rats; assay: Temporary occlusion of the right MCA in rats caused by suture; assay type: in vivo; conditions: for Percent of volume (Means ± SEM) / Percent of infarct (%) (Means ± SEM): rats; for Percent of volume (Means ± SEM): length of ischemia 6 hr
# Excerpt: b. Temporary occlusion of the right MCA in rats caused by suture.
# Ames test = assay type: cell-based
# Excerpt: The Ames test of IV-23 was negative.
# [7] = test system: focal cerebral ischemia in rats; assay: Focal cerebral infarction, electrical coagulation to occlude MCA; assay type: in vivo; design: The neurological deficit score After the operation / The neurological deficit score 24 h: scale not given here; remark: listed apart in the source
# Method: a. The Focal Cerebral-Infarction of Using Electrical Coagulation to Occlude MCA:
# For the 5 mg/kg group, the percentage of the rat's infarct size was decreased, but the difference is not significant (p=0.098). The effect is not significant for the Nimodipine mg/kg.
# cerebral anoxia in mice = assay: Anoxic anoxia experiment in mice (closed wide-mouth bottles with soda lime); assay type: in vivo, Male Kunming mice
# Method: Methods: Male Kunming mice were divided into 8 groups, 12 mice for each group. One group is injected subcutaneously with saline ([…], sc), other groups with ACEA1021 (NMDA receptor antagonist under clinical trial) or IV-23. 30 minutes after administration, the animals were put separately into wide-mouth bottles with soda lime, which more quickly closed. The survival time for each mice was recorded, and the group average of survival time was calculated and compared with the saline group.
# mammalian cultural cell = assay: Chromosome aberration trial in mammalian cultural cell; assay type: cell-based
# Excerpt: The chromosome aberration trial in mammalian cultural cell was negative.
# NMDA receptor [8] = assay: Whole-cell patch clamp, current induced by NMDA in isolated rat CA1 pyramidal neuron; assay type: cell-based; conditions: NMDA 100 μm, n=4, read-out: IC50, inhibition of the electric current induced by NMDA
# Method: Methods: The whole-cell patch-clamp technique. Separate the rat's hippocampi, slash the brain piece into 500 μm thick. Get the CA1 area of hippocampi, put it into artificial cerebral spinal fluid (ACSF) to incubate for more than 1 hour. Then the solution is oxygen saturated. After the incubation of the brain piece, put it into ACSF with protease XIII (1 mg/ml) for 5 minutes. Using trypsin inhibitor type II-S (3 mg/ml) to terminate the protease digestion, and then using test tube to break the brain piece to obtain free cells, let it stand for a while and then start the experiment.
# The electro-physiological experiment used the technique of whole-cell patch-clamp. The amplifier in the experiment is Axon-200A patch-clamp amplifier, with the DigiData-1200A as a sampling port. The software used is AxoScope Version 1.0. The experiment uses as a standard the electric current generated by the whole-cell. The effect of various samples on the electric current was observed. IC50 was determined by proportion of different concentrations to the electric current of NMDA.
# [9] = test system: focal cerebral ischemia in rats; assay: Focal cerebral ischemia in rats by occlusion of middle cerebral artery (MCA); assay type: in vivo; conditions: 20 mg/kg p.o.
# Method: The focal ischemia rat model by occlusion of middle cerebral artery (MCA) was used to determine the protective effects of the compounds on focal cerebral ischemia. The infarct size after focal cerebral ischemia and the weight percentage of cerebral hemisphere were calculated to evaluate the compounds' effects on focal cerebral ischemia.
# [10] = test system: global cerebral ischemia-reperfusion injury in rats; assay: Global cerebral ischemia-reperfusion in rats, four arteries reversible occlusion; assay type: in vivo
# Excerpt: The effect of IV-23 on cerebral ischemia-reperfusion in rats was studied using four arteries reversible occlusion by measuring the recovering time of the electroencephalogram and the righting reflex (a short time indicates a strong effect).
# rodent = assay: Rodent microkernel experiment; conditions: in vivo
# Excerpt: The rodent microkernel experiment of IV-23 was negative.
compound,measurement,setting,value
"O=C(CN1CCN(CC(=O)c2ccccc2)CC1)NCc1ccccc1 [IV-23, N^1-phenacyl-N^4-[2-(benzylamino)-2-oxo-ethyl] piperazine]",LD50,"Acute toxicity; iv, i.v.",133 mg/kg
same,LD50,"Acute toxicity; po, p.o.",856 mg/kg
same,inhibition of platelet aggregation induced by ADP,[1],did inhibit
same,percentage of infarction lowered by,"[2]; compared with vehicle (saline), 24 hours after operation",52%
same,Necrotic percent (%),"[2]; rats, 2 mg/kg",11 ± 3***^ΔΔΔ %
same,Score of praxiology After operation,"[2]; rats, 2 mg/kg",9.6 ± 0.5
same,Weight of necrotic area (g),"[2]; rats, 2 mg/kg",0.08 ± 0.02***^ΔΔΔ g
same,Score of praxiology 24 h,"[2]; rats, 2 mg/kg, 24 h",5.4 ± 1.9***^Δ
same,LDH activities (U/g protein) (mean ± SEM),[3]; Concentration 10,1.86 ± 0.20 U/g protein
same,Protective rate (%),[3]; Concentration 10,0%
same,LDH activities (U/g protein) (mean ± SEM),[3]; Concentration 50,1.23 ± 0.14 U/g protein
same,Protective rate (%),[3]; Concentration 50,48.1%
same,LDH activities (U/g protein) (mean ± SEM),[3]; Concentration 100,1.05 ± 0.16 U/g protein
same,Protective rate (%),[3]; Concentration 100,65.1%
same,LDH activities (U/g protein) (mean ± SEM),[3]; Concentration 200,0.79 ± 0.19 U/g protein
same,Protective rate (%),[3]; Concentration 200,89.6%
same,antagonism % (restrain rate of contraction of preparations),NMDA receptor [4],40%
same,The neurological deficit score 24 h,[5]; High-dose (20 mg/kg),6.7 ± 2.6
same,The neurological deficit score After the operation,[5]; High-dose (20 mg/kg),9.7 ± 0.5
same,The percentage of infarction (%),[5]; High-dose (20 mg/kg),14.2 ± 6.8 %
same,The weight of infarct area,[5]; High-dose (20 mg/kg),0.11 ± 0.05 g
same,The percentage of infarction (%),[5]; middle-dose (10 mg/kg),13.4 ± 8.4 %
same,The weight of infarct area,[5]; middle-dose (10 mg/kg),0.10 ± 0.06 g
same,reduce the volume (of cerebral infarction) by,"[6]; 5 mg/kg, after 3 hours of ischemia",46.3%
same,Percent of volume (Means ± SEM),[6]; 2.5 mg/kg,15.42 ± 1.71%
same,Percent of volume (Means ± SEM),[6]; 5 mg/kg,12.90 ± 1.11%
same,Percent of infarct (%) (Means ± SEM),"[6]; 5 mg/kg, time of occlusion 1 hr",1.31 ± 0.50%
same,Percent of infarct (%) (Means ± SEM),"[6]; 5 mg/kg, time of occlusion 3 hr",8.57 ± 1.42%
same,Percent of infarct (%) (Means ± SEM),"[6]; 5 mg/kg, time of occlusion 6 hr",12.90 ± 1.11%
same,Percent of volume (Means ± SEM),[6]; 10 mg/kg,14.92 ± 1.40%
same,Ames test,Ames test,negative
same,The neurological deficit score 24 h,[7]; Low-dose (5 mg/kg),8.1 ± 2.0
same,The neurological deficit score After the operation,[7]; Low-dose (5 mg/kg),9.7 ± 0.5
same,The percentage of infarction (%),[7]; Low-dose (5 mg/kg),20.8 ± 8.8 %
same,The weight of infarct area,[7]; Low-dose (5 mg/kg),0.15 ± 0.06 g
same,The neurological deficit score 24 h,[7]; middle-dose (10 mg/kg),5.6 ± 2.7
same,The neurological deficit score After the operation,[7]; middle-dose (10 mg/kg),9.6 ± 0.5
same,Average survival time (min)(means ± S.E.M.),cerebral anoxia in mice; 10 mg/kg sc,16.46 ± 0.89 min
same,Average survival time (min)(means ± S.E.M.),cerebral anoxia in mice; 20 mg/kg sc,17.11 ± 0.53 min
same,Average survival time (min)(means ± S.E.M.),cerebral anoxia in mice; 40 mg/kg sc,19.26 ± 0.91 min
same,Average survival time (min)(means ± S.E.M.),cerebral anoxia in mice; 80 mg/kg sc,20.04 ± 1.56 min
same,ED50,"cerebral anoxia in mice; Mus musculus, sc, survival time in anoxic anoxia",6.2 mg/kg
same,chromosome aberration trial,mammalian cultural cell,negative
same,IC50,NMDA receptor [8],562.7 ± 1.1 µM
same,Infarct volume,[9],0.057 ± 0.012 g
same,Neurological deficit After operation,[9],9.4 ± 1.5
same,Time for electroencephalogram to disappear(S),[10]; High-dose (20 mg/kg ip),566.3 ± 430.3^*Δ S
same,Time for electroencephalogram to recover (S),[10]; High-dose (20 mg/kg ip),70.3 ± 20.1^***ΔΔΔ S
same,Time for righting reflex to recover (S),[10]; High-dose (20 mg/kg ip),147.0 ± 123.1^*ΔΔΔ S
same,Time for electroencephalogram to disappear(S),[10]; Low-dose (5 mg/kg ip),275.5 ± 338.1^*Δ S
same,Time for electroencephalogram to recover (S),[10]; Low-dose (5 mg/kg ip),184.6 ± 214.1^***ΔΔΔ S
same,Time for righting reflex to recover (S),[10]; Low-dose (5 mg/kg ip),550.0 ± 282.5^*ΔΔΔ S
same,Time for electroencephalogram to disappear(S),[10]; Middle-dose (10 mg/kg ip),557.1 ± 639.4^*Δ S
same,Time for electroencephalogram to recover (S),[10]; Middle-dose (10 mg/kg ip),334.3 ± 674.3^***ΔΔΔ S
same,Time for righting reflex to recover (S),[10]; Middle-dose (10 mg/kg ip),822.8 ± 741.9^*ΔΔ S
same,rodent microkernel experiment,rodent,negative
